Measured values published in PMC5082902, “Exported Epoxide Hydrolases Modulate Erythrocyte Vasoactive Lipids during Plasmodium falciparum Infection” (mBio, 2016).

What was measured:
Assay in all cases: ELISA of […]([…])-DHET diol product
Format in all cases: biochemical
Settings in all cases: 6 or 12 uM EET, 100 ug enzyme in 100 ul PBS, 37 C, 1.5 h
PfEH2 [1] = target: T1, PfEH2 (Plasmodium falciparum, UniProt Q8IM75)
T1 construct: gene PF3D7_1401300; borders of the construct only in supplement

PfEH2 [2] = target: T1, PfEH2; remark: listed apart in the source
PfEH1 = target: T2, PfEH1 (Plasmodium falciparum, UniProt Q9Y013)
T2 construct: gene PF3D7_0301300; borders of the construct only in supplement
T2 sequence (Q9Y013 entry or part of it): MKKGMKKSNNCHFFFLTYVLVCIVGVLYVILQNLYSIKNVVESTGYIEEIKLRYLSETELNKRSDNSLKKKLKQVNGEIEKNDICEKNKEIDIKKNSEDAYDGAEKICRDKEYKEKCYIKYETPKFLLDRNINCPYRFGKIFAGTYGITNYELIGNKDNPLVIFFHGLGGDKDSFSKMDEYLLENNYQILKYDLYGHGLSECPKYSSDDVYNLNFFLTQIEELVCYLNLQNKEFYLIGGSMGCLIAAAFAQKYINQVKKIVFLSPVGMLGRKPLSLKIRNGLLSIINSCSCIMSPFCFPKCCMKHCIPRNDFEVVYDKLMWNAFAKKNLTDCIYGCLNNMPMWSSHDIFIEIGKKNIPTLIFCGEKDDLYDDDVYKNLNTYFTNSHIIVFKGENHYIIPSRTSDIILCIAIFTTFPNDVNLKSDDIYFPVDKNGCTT

T1 sequence (Q8IM75 entry or part of it): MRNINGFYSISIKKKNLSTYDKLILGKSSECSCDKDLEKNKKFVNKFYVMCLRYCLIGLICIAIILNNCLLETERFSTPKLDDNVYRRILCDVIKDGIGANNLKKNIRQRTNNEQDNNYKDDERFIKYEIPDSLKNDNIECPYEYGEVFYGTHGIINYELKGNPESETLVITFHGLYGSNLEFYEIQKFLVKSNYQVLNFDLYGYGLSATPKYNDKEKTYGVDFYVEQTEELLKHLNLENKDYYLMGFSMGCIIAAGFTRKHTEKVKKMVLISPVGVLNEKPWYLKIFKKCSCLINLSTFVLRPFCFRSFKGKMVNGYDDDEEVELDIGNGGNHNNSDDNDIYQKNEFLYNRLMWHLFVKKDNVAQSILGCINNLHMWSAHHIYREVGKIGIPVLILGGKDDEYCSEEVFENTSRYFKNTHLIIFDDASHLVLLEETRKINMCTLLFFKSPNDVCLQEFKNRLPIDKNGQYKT

SMILES	ELISA of 14(15)-DHET diol product (PfEH2 [1])	ELISA of 11(12)-DHET diol product (PfEH2 [2])	ELISA of 11(12)-DHET diol product (PfEH1)
CCCCCC1OC1C/C=C\C/C=C\C/C=C\CCCC(=O)O (stereo not drawn) [14(15)-EET]	Both recombinant PfEH1 and PfEH2 enzymes increased the formation of the diol product	–	–
CCCCC/C=C\CC1OC1C/C=C\C/C=C\CCCC(=O)O (stereo not drawn) [11(12)-EET]	–	Both recombinant PfEH1 and PfEH2 enzymes increased the formation of the diol product	Both recombinant PfEH1 and PfEH2 enzymes increased the formation of the diol product
